Key:
Format in all cases: cell-based
[1] = target: T1, human TLR7 (Homo sapiens, UniProt Q9NYK1); test: TLR7 inhibition reporter assay (HEK-Blue cells, SEAP reporter, gardiquimod stimulation); settings: HEK-Blue cells overexpressing human TLR7, SEAP reporter, gardiquimod 7.5 μM
T1 construct: host or cells: HEK-Blue cells
T1 sequence (Q9NYK1 27-1049): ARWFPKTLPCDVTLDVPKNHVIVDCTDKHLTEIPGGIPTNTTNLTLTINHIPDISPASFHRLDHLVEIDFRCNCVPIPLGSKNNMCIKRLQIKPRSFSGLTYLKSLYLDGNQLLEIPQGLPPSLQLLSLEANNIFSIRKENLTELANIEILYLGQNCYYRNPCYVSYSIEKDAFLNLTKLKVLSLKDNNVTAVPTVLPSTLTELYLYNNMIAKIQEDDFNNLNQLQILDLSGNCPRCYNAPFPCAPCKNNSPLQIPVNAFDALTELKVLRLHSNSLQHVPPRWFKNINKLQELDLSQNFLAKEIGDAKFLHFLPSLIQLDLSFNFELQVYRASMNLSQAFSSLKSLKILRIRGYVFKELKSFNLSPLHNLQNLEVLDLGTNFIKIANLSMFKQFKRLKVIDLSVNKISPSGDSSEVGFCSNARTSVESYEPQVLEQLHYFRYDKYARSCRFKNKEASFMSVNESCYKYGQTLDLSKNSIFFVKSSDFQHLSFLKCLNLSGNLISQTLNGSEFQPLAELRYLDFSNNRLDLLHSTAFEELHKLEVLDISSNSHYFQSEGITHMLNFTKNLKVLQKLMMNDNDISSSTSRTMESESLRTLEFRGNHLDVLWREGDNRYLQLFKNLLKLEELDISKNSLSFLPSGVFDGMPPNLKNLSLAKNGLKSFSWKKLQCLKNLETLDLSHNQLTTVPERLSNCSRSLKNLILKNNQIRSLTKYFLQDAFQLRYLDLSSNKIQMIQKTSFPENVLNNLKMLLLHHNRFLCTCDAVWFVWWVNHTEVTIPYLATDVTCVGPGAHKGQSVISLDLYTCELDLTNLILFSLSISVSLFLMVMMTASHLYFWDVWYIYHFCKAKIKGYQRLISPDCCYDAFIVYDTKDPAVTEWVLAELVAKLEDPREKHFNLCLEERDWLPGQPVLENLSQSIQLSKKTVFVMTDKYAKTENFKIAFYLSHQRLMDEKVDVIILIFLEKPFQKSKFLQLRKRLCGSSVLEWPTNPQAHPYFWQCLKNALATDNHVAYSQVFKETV
How it was run: (§1)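 Percent inhibition is derived from SEAP signal, scaled between agonist-plus-DMSO wells and wells given a known inhibitor. Test compounds (0.05 nM–50 μM) are pre-incubated 30 min at room temperature before agonist addition (TLR7: 7.5 μM gardiquimod; TLR8: 15.9 μM R848; TLR9: 5 nM ODN2006) and 22 h culture at 37 °C.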

[2] = target: T2, human TLR8 (Homo sapiens, UniProt Q9NR97); test: TLR8 inhibition reporter assay (HEK-Blue cells, SEAP reporter, R848 stimulation); settings: HEK-Blue cells overexpressing human TLR8, SEAP reporter, R848 15.9 μM
T2 construct: host or cells: HEK-Blue cells
T2 sequence (Q9NR97 27-1041): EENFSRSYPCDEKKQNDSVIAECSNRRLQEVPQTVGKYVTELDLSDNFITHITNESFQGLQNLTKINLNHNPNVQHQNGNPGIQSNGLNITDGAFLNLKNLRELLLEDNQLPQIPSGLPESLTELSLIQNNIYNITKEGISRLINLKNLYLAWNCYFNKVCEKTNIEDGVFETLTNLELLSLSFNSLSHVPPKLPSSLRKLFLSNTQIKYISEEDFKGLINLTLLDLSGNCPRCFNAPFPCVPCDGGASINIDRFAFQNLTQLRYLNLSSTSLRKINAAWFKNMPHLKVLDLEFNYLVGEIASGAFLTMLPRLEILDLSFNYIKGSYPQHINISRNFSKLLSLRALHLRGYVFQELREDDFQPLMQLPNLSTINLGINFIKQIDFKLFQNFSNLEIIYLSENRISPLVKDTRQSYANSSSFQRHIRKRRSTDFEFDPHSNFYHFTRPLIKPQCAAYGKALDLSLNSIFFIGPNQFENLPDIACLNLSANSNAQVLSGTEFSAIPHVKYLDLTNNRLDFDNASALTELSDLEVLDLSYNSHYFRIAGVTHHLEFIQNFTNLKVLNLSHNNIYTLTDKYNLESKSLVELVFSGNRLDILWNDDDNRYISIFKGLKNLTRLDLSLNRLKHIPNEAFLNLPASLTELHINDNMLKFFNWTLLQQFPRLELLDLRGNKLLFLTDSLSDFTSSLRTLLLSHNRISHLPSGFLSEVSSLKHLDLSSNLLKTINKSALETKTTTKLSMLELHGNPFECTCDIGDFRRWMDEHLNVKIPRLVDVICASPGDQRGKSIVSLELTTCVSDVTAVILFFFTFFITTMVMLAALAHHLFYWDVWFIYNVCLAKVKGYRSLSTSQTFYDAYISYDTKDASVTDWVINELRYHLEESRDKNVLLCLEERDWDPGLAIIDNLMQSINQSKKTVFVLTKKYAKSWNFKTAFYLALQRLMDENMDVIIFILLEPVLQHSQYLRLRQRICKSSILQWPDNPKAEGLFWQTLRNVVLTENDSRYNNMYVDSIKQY
How it was run: as §1

[3] = target: T3, human TLR9 (Homo sapiens, UniProt Q9NR96); test: TLR9 inhibition reporter assay (HEK-Blue cells, SEAP reporter, ODN2006 stimulation); settings: HEK-Blue cells overexpressing human TLR9, SEAP reporter, ODN2006 5 nM
T3 construct: host or cells: HEK-Blue cells
T3 sequence (Q9NR96 26-1032): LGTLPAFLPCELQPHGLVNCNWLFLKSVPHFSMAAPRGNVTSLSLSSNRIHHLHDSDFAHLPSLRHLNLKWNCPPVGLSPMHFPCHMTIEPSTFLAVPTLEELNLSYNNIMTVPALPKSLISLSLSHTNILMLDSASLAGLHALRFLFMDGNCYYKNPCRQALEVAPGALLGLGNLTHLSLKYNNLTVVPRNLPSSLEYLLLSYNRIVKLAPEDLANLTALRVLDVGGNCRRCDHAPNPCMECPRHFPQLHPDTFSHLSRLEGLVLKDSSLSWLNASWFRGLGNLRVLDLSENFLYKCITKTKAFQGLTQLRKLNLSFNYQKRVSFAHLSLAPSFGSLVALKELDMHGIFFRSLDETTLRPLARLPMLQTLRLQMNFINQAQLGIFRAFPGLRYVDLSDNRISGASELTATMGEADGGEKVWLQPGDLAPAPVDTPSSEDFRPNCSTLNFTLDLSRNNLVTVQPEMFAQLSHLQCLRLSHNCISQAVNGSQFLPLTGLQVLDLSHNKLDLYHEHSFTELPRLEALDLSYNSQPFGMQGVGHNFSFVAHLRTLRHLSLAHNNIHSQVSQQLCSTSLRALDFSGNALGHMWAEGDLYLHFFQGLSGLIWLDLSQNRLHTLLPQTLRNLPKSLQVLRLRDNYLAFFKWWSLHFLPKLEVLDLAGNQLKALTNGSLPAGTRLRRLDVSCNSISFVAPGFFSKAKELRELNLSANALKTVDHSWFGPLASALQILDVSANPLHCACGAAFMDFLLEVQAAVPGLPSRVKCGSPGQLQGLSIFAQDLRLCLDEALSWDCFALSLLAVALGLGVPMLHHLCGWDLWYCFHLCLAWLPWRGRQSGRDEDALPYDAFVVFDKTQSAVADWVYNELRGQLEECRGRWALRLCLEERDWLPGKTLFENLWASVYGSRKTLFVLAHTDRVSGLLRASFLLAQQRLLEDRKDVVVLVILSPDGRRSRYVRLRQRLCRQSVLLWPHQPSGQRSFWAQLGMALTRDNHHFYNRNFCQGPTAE
How it was run: as §1

SMILES | IC50 [1] | IC50 [2] | IC50 [3]
Cc1cc(-c2[nH]c3ccc(C4CN(CCS(C)(=O)=O)CCO4)cc3c2C(C)C)cn2ncnc12 (stereo not drawn) [Example 344] | 0.007 µM | 0.014 µM | > 50 µM
COc1cc(-c2[nH]c3ccc(C4CCC(N(C)C5CC5)CC4)cc3c2C(C)C)cn2ncnc12 (stereo not drawn) [Example 12] | 0.0007 µM | 0.0016 µM | 2.13 µM
CCN(CC)CC(=O)NC1CCC(c2ccc3[nH]c(-c4cn5ncnc5c(C)c4C)c(C(C)C)c3c2)CC1 (stereo not drawn) [Example 126] | 0.00051 µM | 0.0023 µM | > 50 µM
CCc1c(-c2ccc(OC)c(OC)c2)[nH]c2ccc(CC3CCCN3)cc12 (stereo not drawn) [Example 419] | 0.418 µM | 0.027 µM | 3.76 µM
COCCN1CCCC(c2ccc3[nH]c(-c4cc(OC)c5ncnn5c4)c(C(C)C)c3c2)C1 (stereo not drawn) [Example 251, 6-(3-isopropyl-5-(1-(2-methoxyethyl)piperidin-3-yl)-1H-indol-2-yl)-8-methoxy-[1,2,4]triazolo[1,5-a]pyridine] | 0.003 µM | 0.0032 µM | 5.26 µM
COc1cc(-c2[nH]c3ccc(C4CCC(N(C)C(C)C)CC4)cc3c2C(C)C)cn2ncnc12 (single isomer, unassigned) [Example 7, N-isopropyl-4-(3-isopropyl-2-(8-methoxy-[1,2,4]triazolo[1,5-a]pyridin-6-yl)-1H-indol-5-yl)-N-methylcyclohexanamine] | 0.001 µM | 0.0044 µM | 2 µM
COc1cc(-c2[nH]c3ccc(C4CCC(N5CC[C@H](N(C)C)C5)CC4)cc3c2C(C)C)cn2ncnc12 (stereo partly drawn) [Example 32] | 0.00014 µM | 0.00016 µM | 0.17 µM
CNCC(=O)N1CCOC(c2ccc3[nH]c(-c4cc(C)c5ncnn5c4)c(C(C)C)c3c2)C1 (stereo not drawn) [Example 337, 1-(2-(3-isopropyl-2-(8-methyl-[1,2,4]triazolo[1,5-a]pyridin-6-yl)-1H-indol-5-yl)morpholino)-2-(methylamino)ethanone] | 0.001 µM | 0.0071 µM | 3.28 µM
Cc1c(-c2[nH]c3ccc(C4CN(CC(=O)N(C)C)C(C)(C)CO4)cc3c2C(C)C)cn2ncnc2c1C (stereo not drawn) [Example 387] | 0.086 µM | 0.044 µM | > 50 µM
Cc1cc(-c2[nH]c3ccc(C4CN(CC(=O)N(C)C)CCO4)cc3c2C(C)C)cc(C)n1 (stereo not drawn) [Example 322] | 0.069 µM | 0.086 µM | 20.3 µM
Cc1c(-c2[nH]c3ccc(C4CCC(NC5COC5)CC4)cc3c2C(C)C)cn(C)c(=O)c1C (stereo not drawn) [Example 474] | 0.045 µM | 0.019 µM | 28.9 µM
COc1cc(-c2[nH]c3ccc(C4CCC(N5CC[C@@H](N(C)C)C5)CC4)cc3c2C(C)C)cn2ncnc12 (stereo partly drawn) [Example 30] | 0.003 µM | 0.005 µM | 0.824 µM
Cc1c(-c2[nH]c3ccc(C4CC5CN(C6CCOCC6)CC5C4)cc3c2C(C)C)cn2cnnc2c1C (stereo not drawn) [Example 563] | 1.27 µM | 3.13 µM | 38.2 µM
Cc1c(-c2[nH]c3ccc(C4CCC(NC5COC5)CC4)cc3c2C(C)C)cn2ncnc2c1C (single isomer, unassigned) [Example 85] | 0.00035 µM | 0.00053 µM | 2.88 µM
Cc1cc(-c2[nH]c3ccc(C4CCC(O)CC4)cc3c2C(C)C)cc(C)n1 (single isomer, unassigned) [Example 171, 4-(2-(2,6-dimethylpyridin-4-yl)-3-isopropyl-1H-indol-5-yl)cyclohexanol] | 0.027 µM | 0.212 µM | > 50 µM
COc1cc(-c2[nH]c3ccc(C4CN(C(=O)CN(C)C)CCO4)cc3c2C(C)C)cn2ncnc12 (stereo not drawn) [Example 334] | 0.00083 µM | 0.0031 µM | 2.75 µM
Cc1cc(-c2[nH]c3ccc([C@@H]4C[C@H]4C(=O)NC4CC5CCN4CC5)cc3c2C(C)C)ccn1 (stereo partly drawn) [Example 461] | 0.086 µM | 0.03 µM | 0.467 µM
Cc1cc(-c2[nH]c3ccc(C4CNC4)cc3c2C(C)C)cn2ncnc12 [Example 257, 6-(5-(azetidin-3-yl)-3-isopropyl-1H-indol-2-yl)-8-methyl-[1,2,4]triazolo[1,5-a]pyridine] | 0.00044 µM | 0.0019 µM | 0.76 µM
COCCN1CCOC(c2ccc3[nH]c(-c4cc(C)nc(C)c4)c(C(C)C)c3c2)C1 (stereo not drawn) [Example 352] | 0.042 µM | 0.015 µM | 3.7 µM
Cc1cc(-c2[nH]c3ccc(C4CCC(N(C)C5CC5)CC4)cc3c2C(C)C)cn2ncnc12 (single isomer, unassigned) [Example 8] | 0.006 µM | 0.016 µM | 3.69 µM
Cc1cc(-c2[nH]c3ccc(C4CCCN(C(=O)CN5CCOCC5)C4)cc3c2C(C)C)cc(C)n1 (stereo not drawn) [Example 197] | 0.002 µM | 0.016 µM | 44.6 µM
Cc1c(-c2[nH]c3ccc(C4CC5CNCC5C4)cc3c2C(C)C)cn2ncnc2c1C (stereo not drawn) [Example 506] | 0.001 µM | 0.021 µM | 6.59 µM
